# Measurements: patent US9708268B2, “ROR modulators and their uses” (INNOV17 LLC, priority 2012, dated 2017)
# Columns and labels:
# IL-17A [1] = assay: TH17 cytokine inhibition as measured by ELISA (IL-17A); format: cell-based; settings: 120 h; human CD4+ T cells differentiated to TH17 over 5 days, supernatant ELISA, vs DMSO
# Description: (§1) Peripheral blood mononuclear cells (PBMCs) were sourced from freshly prepared leukocyte enriched plasma (buffy coat) from healthy volunteers from which PBMCs were isolated by density gradient centrifugation using Ficoll-Paque™ PLUS (GE Healthcare). Naïve CD4+ T cells were isolated using the Naïve CD4+ T cell Isolation Kit II (Miltenyi Biotec) as per manufacturer's instructions. CD4+ T cells were plated at 5×10^4 cells/well in 96 well plates pre-coated with immobilized human (h)-αCD3 antibody (eBioscience) then differentiated to TH17 cells using h-αCD28, h-αIFN-γ, h-αIL-4, h-IL-6, h-IL-23, […], h-TGF-β1 (eBioscience) and maintained in a cell culture incubator at 37° C. with 5% CO2 in TexMACS Medium (Miltenyi Biotec) supplemented with 1% Penicillin/Streptomycin (Lonza) over 5 days.
# (§2) Human CD4+ T cells were differentiated to TH17 cells as described in the presence or absence of various concentrations of compounds in a final concentration of 0.1% DMSO in TexMACS medium. Supernatants were collected and stored at −20° C. until they were to be assayed for IL-17A, IL-17F, IL-17AF, IL-21 and/or IL-22 levels as determined by Ready-Set-Go ELISA kits (eBioscience) as per manufacturer's instructions. Endpoint absorbance was read at 450 nm and 570 nm according to manufacturer's instructions (eBioscience) using a microplate reader (Perkin Elmer). The percentage of cytokine inhibition was calculated with reference to DMSO treated cells and the IC50s were determined by GraphPad Prism software and presented in the table below.
# IL-17F [2] = assay: TH17 cytokine inhibition as measured by ELISA (IL-17F); format: cell-based; settings: 120 h; human CD4+ T cells differentiated to TH17 over 5 days, supernatant ELISA, vs DMSO
# Description: as §1, §2
# IL-17AF = assay: TH17 cytokine inhibition as measured by ELISA (IL-17AF); format: cell-based; settings: 120 h; human CD4+ T cells differentiated to TH17 over 5 days, supernatant ELISA, vs DMSO
# Description: as §1, §2
# [3] = TH17 cell viability (Prestoblue); format: cell-based; design: concentration or dose not given beside the values; settings: human; percentage of DMSO treated cells; read-out: % viability of compound treated TH17 cells
# Description: as §1
# Cells were assayed for viability in the presence or absence of compound using Prestoblue® Cell Viability Reagent (Life Technologies) as per manufacturer's instructions after 30 minutes incubation of TH17 cells with reagent. Absorbance was measured at 570 nm and 600 nm using a microplate reader (Perkin Elmer) and data were analyzed as per manufacturer's instructions. Cell viability was expressed as a percentage of DMSO treated cells.
# IL-22 [4] = assay: TH17 cytokine inhibition as measured by ELISA (IL-22); format: cell-based; settings: 120 h; human CD4+ T cells differentiated to TH17 over 5 days, supernatant ELISA, vs DMSO
# Description: as §1, §2
# TH17 cells = assay: TH17 cellular proliferation (Prestoblue); format: cell-based, human; settings: 3 μM compound, after 5 day TH17 differentiation, relative to DMSO treated cells
# Description: as §1
# Cellular proliferation was assessed in the presence or absence of 3 μM compound using Prestoblue® Cell Viability Reagent (Life Technologies) as per manufacturer's instructions using absorbance as the output measured by a microplate reader (Perkin Elmer) after 30 minutes of incubation of cells and reagent. A standard curve developed by plotting varying cell numbers versus absorbance was used to assess differences in cellular proliferation between compound treated or untreated cells after the 5 day TH17 differentiation period.
# IL-17A [5] = assay: Real-time qRT-PCR gene expression in TH17 cells (IL-17A); format: cell-based, human; design: key: A: No change in gene expression observed relative to DMSO treated TH17 cells; B: Decreased gene expression observed relative to DMSO treated TH17 cells; C: Increased gene expression observed relative to DMSO treated TH17 cells; settings: mRNA
# Description: as §1
# (§3) RNA was isolated from TH17 cells and cDNA was synthesized using the Verso cDNA kit (Thermo Scientific) as per manufacturer's instructions. IL-17A, IL-17F, IL-21, IL-22, G-CSF, IL-23R and FOXP3 gene expression were determined for compound treated and untreated TH17 cell samples using Solaris qPCR Gene expression assays (Thermo Scientific) with an iCycler iQ Real-Time PCR Detection System (Bio-Rad). Individual gene expression was normalized to a panel of six reference genes (ACTB, TBP, HPRT1, PGK1, TFRC and PPIA) (Thermo Scientific) and analyzed by REST 2009 (Qiagen) in accordance to MIQE guidelines (Bustin, et al. (2009) Clin. Chem. 55, 611-622), which is hereby incorporated by reference in its entirety). The effects of compounds on TH17 cytokine mRNA levels are presented as fold change in gene expression of compound treated TH17 cells relative to DMSO treated cells in the table below.
# IL-17F [6] = assay: Real-time qRT-PCR gene expression in TH17 cells (IL-17F); format: cell-based, human; design: key: A: No change in gene expression observed relative to DMSO treated TH17 cells; B: Decreased gene expression observed relative to DMSO treated TH17 cells; C: Increased gene expression observed relative to DMSO treated TH17 cells; settings: mRNA
# Description: as §1, §3
# IL-22 [7] = assay: Real-time qRT-PCR gene expression in TH17 cells (IL-22); format: cell-based, human; design: key: A: No change in gene expression observed relative to DMSO treated TH17 cells; B: Decreased gene expression observed relative to DMSO treated TH17 cells; C: Increased gene expression observed relative to DMSO treated TH17 cells; settings: mRNA
# Description: as §1, §3
# IL-21 = assay: Real-time qRT-PCR gene expression in TH17 cells (IL-21); format: cell-based, human; design: key: A: No change in gene expression observed relative to DMSO treated TH17 cells; B: Decreased gene expression observed relative to DMSO treated TH17 cells; C: Increased gene expression observed relative to DMSO treated TH17 cells; settings: mRNA
# Description: as §1, §3
# IL-23R = assay: Real-time qRT-PCR gene expression in TH17 cells (IL-23R); format: cell-based, human; design: key: A: No change in gene expression observed relative to DMSO treated TH17 cells; B: Decreased gene expression observed relative to DMSO treated TH17 cells; C: Increased gene expression observed relative to DMSO treated TH17 cells; settings: mRNA
# Description: as §1, §3
# FOXP3 = assay: Real-time qRT-PCR gene expression in TH17 cells (FOXP3); format: cell-based, human; design: key: A: No change in gene expression observed relative to DMSO treated TH17 cells; B: Decreased gene expression observed relative to DMSO treated TH17 cells; C: Increased gene expression observed relative to DMSO treated TH17 cells; settings: mRNA
# Description: as §1, §3
Compound,IC50 (IL-17A [1]) [µM],IC50 (IL-17F [2]) [µM],IC50 (IL-17AF) [µM],viability [3] [%],IC50 (IL-22 [4]) [µM],% change in TH17 cell number (TH17 cells),"Change in gene expression of compound treated TH17 cells relative to DMSO treated cells, IL-17A (IL-17A [5])","Change in gene expression of compound treated TH17 cells relative to DMSO treated cells, IL-17F (IL-17F [6])","Change in gene expression of compound treated TH17 cells relative to DMSO treated cells, IL-22 (IL-22 [7])","Change in gene expression of compound treated TH17 cells relative to DMSO treated cells, IL-21 (IL-21)","Change in gene expression of compound treated TH17 cells relative to DMSO treated cells, IL-23R (IL-23R)","Change in gene expression of compound treated TH17 cells relative to DMSO treated cells, FOXP3 (FOXP3)"
"CN(C)C(=O)c1ccc2c(c1)CCC(=O)N2Cc1ccc(C(O)(C(F)(F)F)C(F)(F)F)cc1 [Example 7, 1-(4-(1,1,1,3,3,3-hexafluoro-2-hydroxypropan-2-yl)benzyl)-N,N-dimethyl-2-oxo-1,2,3,4-tetrahydroquinoline-6-carboxamide]",< 10,< 10,> 10,> 80,,,,,,,,
"CNC(=O)c1ccc2c(c1)CCN2Cc1ccc(C(O)(C(F)(F)F)C(F)(F)F)cc1 [Example 12, 1-(4-(1,1,1,3,3,3-hexafluoro-2-hydroxypropan-2-yl)benzyl)-N-methylindoline-5-carboxamide]",< 10,< 10,,> 80,> 10,B (≦50% decrease in cell proliferation relative to DMSO treated TH17 cells),,,,,,
"CN(C)C(=O)c1ccc2c(c1)CCN2Cc1ccc(C(O)(C(F)(F)F)C(F)(F)F)cc1 [Example 13, 1-(4-(1,1,1,3,3,3-hexafluoro-2-hydroxypropan-2-yl)benzyl)-N,N-dimethylindoline-5-carboxamide]",< 10,< 10,,> 80,< 10,B (≦50% decrease in cell proliferation relative to DMSO treated TH17 cells),,,,,,
"CN(C)C(=O)c1ccc2c(ccc(=O)n2Cc2ccc(C(O)(C(F)(F)F)C(F)(F)F)cc2)c1 [Example 10, 1-(4-(1,1,1,3,3,3-hexafluoro-2-hydroxypropan-2-yl)benzyl)-N,N-dimethyl-2-oxo-1,2-dihydroquinoline-6-carboxamide]",< 10,> 10,,> 80,> 10,B (≦50% decrease in cell proliferation relative to DMSO treated TH17 cells),A,A,A,A,A,A
"NC(=O)c1ccc2c(c1)CCC(=O)N2Cc1ccc(C(O)(C(F)(F)F)C(F)(F)F)cc1 [Example 5, 1-(4-(1,1,1,3,3,3-hexafluoro-2-hydroxypropan-2-yl)benzyl)-2-oxo-1,2,3,4-tetrahydroquinoline-6-carboxamide]",> 10,> 10,> 10,> 80,,,,,,,,
"CNC(=O)c1ccc2c(ccc(=O)n2Cc2ccc(C(O)(C(F)(F)F)C(F)(F)F)cc2)c1 [Example 9, 1-(4-(1,1,1,3,3,3-hexafluoro-2-hydroxypropan-2-yl)benzyl)-N-methyl-2-oxo-1,2-dihydroquinoline-6-carboxamide]",> 10,> 10,,> 80,> 10,B (≦50% decrease in cell proliferation relative to DMSO treated TH17 cells),B,B,B,B,A,A
"NC(=O)c1ccc2c(c1)CCN2Cc1ccc(C(O)(C(F)(F)F)C(F)(F)F)cc1 [Example 11, 1-(4-(1,1,1,3,3,3-hexafluoro-2-hydroxypropan-2-yl)benzyl)indoline-5-carboxamide]",< 10,< 10,,> 80,< 10,B (≦50% decrease in cell proliferation relative to DMSO treated TH17 cells),,,,,,
"NC(=O)c1ccc2c(ccc(=O)n2Cc2ccc(C(O)(C(F)(F)F)C(F)(F)F)cc2)c1 [Example 8, 1-(4-(1,1,1,3,3,3-hexafluoro-2-hydroxypropan-2-yl)benzyl)-2-oxo-1,2-dihydroquinoline-6-carboxamide]",< 10,< 10,,> 80,> 10,B (≦50% decrease in cell proliferation relative to DMSO treated TH17 cells),A,B,C,A,A,A
